Measurements as given in ChEMBL document CHEMBL1909540, “Synthesis and antimycobacterial evaluation of 3a,4-dihydro-3H-indeno [1,2-c] pyrazole-2-carboxamide analogues” (Eur J Med Chem, 2011).
In brackets after ≈: the same amount, converted by molar mass.

Assays:
[1] = tested on: Mycobacterium tuberculosis; assay: Antitubercular activity against Mycobacterium tuberculosis H37Rv by two fold serial dilution method; type: functional
[2] = tested on: Vero; assay: Cytotoxicity against african green monkey Vero cells after 72 hrs by MTT assay; type: cell-based; conditions: Chlorocebus sabaeus
[3] = Safety index, ratio of IC50 for african green monkey Vero cells to MIC for Mycobacterium tuberculosis H37Rv; type: toxicity, cell-based

| SMILES | MIC [1] | IC50 [2] | selectivity ratio [3] |
| --- | --- | --- | --- |
| COc1cc2c(cc1OC)C1=NN(C(=O)Nc3ccc([N+](=O)[O-])cc3)C(c3ccncc3)C1C2 (stereo not drawn) | 6.8 µM (≈ 3.12 µg/mL) | 68 µM |  |
| COc1cc2c(cc1OC)C1=NN(C(=O)Nc3ccc(Cl)cc3)C(c3ccncc3)C1C2 (stereo not drawn) | 6.96 µM (≈ 3.12 µg/mL) | > 139 µM |  |
| COc1cc2c(cc1OC)C1=NN(C(=O)Nc3ccc(Cl)cc3)C(c3ccccc3Cl)C1C2 (stereo not drawn) | 13.9 µM (≈ 6.71 µg/mL) |  |  |
| COc1cc2c(cc1OC)C1=NN(C(=O)Nc3ccc(Cl)cc3)C(c3ccc(F)cc3)C1C2 (stereo not drawn) | 0.83 µM (≈ 0.387 µg/mL) | > 134 µM | > 161 |
| COc1ccc(C2C3Cc4cc(OC)c(OC)cc4C3=NN2C(=O)Nc2ccc(Cl)cc2)cc1OC (stereo not drawn) | 9.8 µM (≈ 4.98 µg/mL) |  |  |
| COc1cc2c(cc1OC)C1=NN(C(=O)Nc3ccc(Cl)cc3)C(c3ccccc3)C1C2 (stereo not drawn) | 6.97 µM (≈ 3.12 µg/mL) | > 139 µM |  |
| COc1ccc(C2C3Cc4cc(OC)c(OC)cc4C3=NN2C(=O)Nc2ccc(Cl)cc2)cc1 (stereo not drawn) | 10.5 µM (≈ 5 µg/mL) |  |  |
| COc1cc2c(cc1OC)C1=NN(C(=O)Nc3ccc([N+](=O)[O-])cc3)C(c3ccccc3Cl)C1C2 (stereo not drawn) | 12.7 µM (≈ 6.25 µg/mL) |  |  |
| COc1cc2c(cc1OC)C1=NN(C(=O)Nc3ccc([N+](=O)[O-])cc3)C(c3ccc(F)cc3)C1C2 (stereo not drawn) | 3.16 µM (≈ 1.51 µg/mL) | 94.8 µM |  |
| COc1ccc(C2C3Cc4cc(OC)c(OC)cc4C3=NN2C(=O)Nc2ccc([N+](=O)[O-])cc2)cc1OC (stereo not drawn) | 12.1 µM (≈ 6.25 µg/mL) |  |  |
| COc1cc2c(cc1OC)C1=NN(C(=O)Nc3ccc([N+](=O)[O-])cc3)C(c3ccccc3)C1C2 (stereo not drawn) | 6.81 µM (≈ 3.12 µg/mL) | 51.1 µM |  |
| COc1ccc(C2C3Cc4cc(OC)c(OC)cc4C3=NN2C(=O)Nc2ccc([N+](=O)[O-])cc2)cc1 (stereo not drawn) | 12.8 µM (≈ 6.24 µg/mL) |  |  |
| COc1cc2c(cc1OC)C1=NN(C(N)=O)C(c3ccncc3)C1C2 (stereo not drawn) | 11.8 µM (≈ 3.99 µg/mL) |  |  |
| COc1cc2c(cc1OC)C1=NN(C(N)=O)C(c3ccccc3Cl)C1C2 (stereo not drawn) | 10.8 µM (≈ 4 µg/mL) |  |  |
| COc1cc2c(cc1OC)C1=NN(C(N)=O)C(c3ccc(F)cc3)C1C2 (stereo not drawn) | 8.44 µM (≈ 3 µg/mL) | 177 µM |  |
| COc1ccc(C2C3Cc4cc(OC)c(OC)cc4C3=NN2C(N)=O)cc1OC (stereo not drawn) | 10.1 µM (≈ 3.99 µg/mL) |  |  |
| COc1cc2c(cc1OC)C1=NN(C(N)=O)C(c3ccccc3)C1C2 (stereo not drawn) | 11.8 µM (≈ 3.99 µg/mL) |  |  |
| COc1ccc(C2C3Cc4cc(OC)c(OC)cc4C3=NN2C(N)=O)cc1 (stereo not drawn) | 10.9 µM (≈ 3.99 µg/mL) |  |  |
| NNC(=O)c1ccncc1 [ISONIAZID] | 0.56 µM (≈ 0.0768 µg/mL) | > 456 µM |  |
